Positions of bridges follow the written chain, without caps; N, C: chain ends. Chains are numbered I, II in the order given.
Legend:
[1] = system: ID8 ovarian cancer cell line; assay: Murine model of ovarian cancer, sv6D and anti-PD-1; assay type: in vivo, C57BL/6 mice
Protocol: FIGS. 9A-9B. Combination study of sv6D and anti-PD-1. (FIG. 9A) The design of the experiment and extension of survival of C57BL/6 female mice implanted with ovarian cancer cell line ID8 and treatments with anti-PD-1 and sv6D. Anti-PD-1 (rat anti-mouse, clone 29F.1A12) was administered intraperitoneally every other day, 200 μg protein per dose, between day 41 and 49 (white bars). sv6D was administered subcutaneously every other day at 0.1 nmol/g, starting on day 36, 51 or 87 (grey bars). […] (FIG. 9B) Kaplan-Meier survival curves of mice treated with anti-PD-1 and/or sv6D. […] For group 3, the Mantel-Cox log-rank test p=0.003 indicates the significance between treatment with the combination and antibody alone. Anti-PD-1, square; sv6D, dark triangle; anti-PD-1 followed by sv6D (Group 3 in FIG. 9A), light triangle; PBS, circle.
We tested whether sv6D would extend effectiveness of anti-PD-1. Five doses of anti-PD-1 (200 μg in PBS) were injected intraperitoneally on alternate days between days 41 and 49. sv6D was injected subcutaneously immediately after the treatment with anti-PD-1 and continued on alternate days to the end of the study (FIG. 9A, Group 3).

CD4 and CD8 T cells = assay: In vitro challenge of T cells from mice injected with sv6D-MOG; assay type: cell-based, C57BL/6 mice; settings: mice injected weekly x2 with 0.1 nmol/g; 72 h incubation
Protocol: FIGS. 11A-11B. Activation of T cells by sv6D-antigen conjugate. IFN-γ (FIG. 11A) and IL-2 (FIG. 11B) production upon in vitro challenge of T cells after weekly injections of sv6D or sv6D-MOG (MOG=myelin oligodendrocyte glycoprotein35-55) into C57BL/6 mice. One week after the second injection, spleen and right inguinal lymph node tissue were combined and homogenized to allow isolation of CD4 and CD8 T cells, which were mixed with non-T cell antigen presenting cells, and incubated 72 h with PBS, sv6D or sv6D-MOG. PMA (phorbol 12-myristate 13-acetate) and I (ionomycin) were added as positive controls. Activation of CD8^+ T cells indicated cross-presentation of the antigen to the cytosol of dendritic cells, mediated by sv6D.
Whereas sv6D is not antigenic in the mouse (FIG. 10), it is important to determine whether the peptide gains access to the cytosol of DCs. To test whether sv6D could initiate a TH1 response and activate CD8^+ T cells, a fragment of the myelin oligodendrocyte glycoprotein (MOG35-55) was attached to the C-terminus of sv6D and injected into mice. One week after a second weekly injection of 0.1 nmol/g peptide, CD4^+ and CD8^+ T cells were challenged in vitro with the conjugate. […] A high level of IL-2 was also released by CD4^+ T cells (FIG. 11B). These observations are typical of a strong response to vaccination and stimulation of clonal T cell proliferation. […]

[2] = system: ID8 ovarian cancer cell line; assay: Murine model of ovarian cancer, sv6D and paclitaxel
Protocol: Combination study of sv6D and paclitaxel. (FIG. 8A) Female C57BL/6 mice were implanted with ID8 ovarian cancer cell line. […] Body weights of mice are shown as measured on day 58, after two weeks of alternate-day subcutaneous treatment with sv6D (0.1 nmol/g) or 3 intraperitoneal doses (days 45, 47 and 49) of 18 μg/g paclitaxel in cremophor. […] (FIG. 8B) Alternate-day injections of sv6D were initiated on day 50 with peptide alone or on day 100 to mice that were previously treated with paclitaxel between day 45 and 49. […] (FIG. 8C) Kaplan-Meier survival curves for mice treated with paclitaxel, sv6D or a combination of the two in which alternate-day subcutaneous injections of sv6D was started 50 days after paclitaxel treatment.
Cells of an ovarian epithelial cancer line, ID8 [110], were implanted into the peritoneal cavity of female C57BL/6 mice at a dose of 6×10^6 cells. All animals were weighed at least weekly throughout these studies. Accumulation of ascites was monitored by increase in body weight, and animals were euthanized when end-stage behavior was expressed. […] Kaplan-Meier survival curves were analyzed by the Mantel-Cox log-rank test.
A murine ovarian cancer cell line (ID8) was implanted into the peritoneal cavity of C57BL/6 female mice on day 0. […] Progression of the cancer was monitored by body weight of animals as an indication of ascites accumulation.

[3] = system: monocytes in the peritoneal cavity; assay: Response of peritoneal monocytes in RAG−/− mice; assay type: in vivo; settings: mice lacking B and T cells
Protocol: To determine whether the target(s) for svL4 is located on lymphocytes, with subsequent cross-talk signaling to achieve activation of monocytes, an experiment was performed in which svL4 was injected into RAG^−/− mice, which lack activity of rag, the recombination activation gene. The ability to perform recombination to generate antigen-specific antibodies by V(D)J recombination is required for B and T cell precursors to produce functional antigen receptors on their surface, and without a functional rag gene these cells undergo apoptosis.

[4] = system: 4T1 breast cancer-bearing mice; settings: 0.1 nmol/g svL4 s.c., 4 h
Protocol: When tumors reached a volume of at least 500 mm^3, animals were randomized into groups of 3 and dosed with either 0.1 or 1.0 nmol/g of svL4. At 4 h post dose, terminal blood was collected from 3 animals per group and prepared for serum. Sera were also collected from healthy Balb/c mice by the same procedure. Changes in the levels of cytokines/chemokines in sera from breast cancer-bearing and healthy mice were analyzed with the mouse L-308 membrane array by RayBiotech, Inc. (Norcross, Ga.) (Table 2).
Markers of lymphocyte and monocyte activation in response to 0.1 nmol/g svL4 in Balb/c mice bearing breast tumors are compared with healthy mice. Sera from three animals were pooled for analysis with an array of 308 soluble factors.
After the tumors had grown over a period of 10 to 12 days to a size of −500 mm^3, svL4 was injected subcutaneously at doses of 0.1 or 1.0 nmol/g. Sera were prepared 4 h after injection and analyzed with an array of 308 cytokines/chemokines.

[5] = High = control value negligible or low

I: H-NQHTPRGGGSKK-NH2 / II: H-NQHTPRGGGSK / III: H-NQHTPRGGGS / IV: H-NQHTPRGGGS (amide I:11-IV:C, I:12-II:C, II:11-III:C) [sv6D]
Ascites formation ([1]; Group 5: sv6D from day 87 after anti-PD-1): essentially complete suppression of ascites formation | Survival ([1]; Group 6: hiatus of one week after a week of sv6D): survived only slightly longer than animals treated with PBS | Survival ([1]; combination of anti-PD-1 with sv6D (Group 4)): maximal survival | Survival ([1]; single agent: anti-PD-1 200 μg i.p. x5 (Group 1), sv6D 0.1 nmol/g s.c. alternate days (Group 7)): maximal survival | Accumulation of ascites ([1]; sv6D alone vs. anti-PD-1): inhibited accumulation of ascites to a greater extent than anti-PD-1 | IFN-γ release by CD4+ and CD8+ T cells on in vitro challenge (CD4 and CD8 T cells): did not induce IFN-γ release | Median survival ([2]; paclitaxel days 45-49 followed by sv6D from day 100): 169 days | Overall survival time ([2]; paclitaxel followed by sv6D): doubled | Median survival ([2]; single agent, sv6D 0.1 nmol/g, control median end-stage day 122): approximately 141 days | Weight gain at day 120 ([2]; sv6D alone initiated at day 45): no significant weight gain for half the animals | Further increase in body weight over 3 weeks ([2]; sv6D alternate days from day 100, 50 days after paclitaxel): completely suppressed further increases in weight | Body weight (ascites accumulation) after two weeks of treatment ([2]; treatment from day 45, sv6D 0.1 nmol/g s.c. alternate days, paclitaxel 18 μg/g i.p. x3): had not significantly increased

I: H-VQATQSNQHTPRGGGSKK-NH2 / II: H-VQATQSNQHTPRGGGSK / III: H-VQATQSNQHTPRGGGS / IV: H-VQATQSNQHTPRGGGS (amide I:17-IV:C, I:18-II:C, II:17-III:C) [svL4]
Response of peritoneal monocytes [3]: essentially the same as that in C57BL/6 mice | Ratio of level of IFN-γ in sera (treated vs. untreated) [4, 5]: High | Ratio of level of IL-17 in sera (treated vs. untreated) [4, 5]: High | Ratio of level of IL-21 in sera (treated vs. untreated) [4, 5]: High | Ratio of level of IL-23 in sera (treated vs. untreated) [4, 5]: High | Ratio of level of IL-1α in sera (treated vs. untreated) ([4]; pooled sera of 3): 3 | Ratio of level of IL-2 in sera (treated vs. untreated) ([4]; pooled sera of 3): 56 | Ratio of level of IL-12p70 in sera (treated vs. untreated) ([4]; pooled sera of 3): 3 | Ratio of level of IL-27 in sera (treated vs. untreated) ([4]; pooled sera of 3): 4.5 | Ratio of level of IL-28 in sera (treated vs. untreated) ([4]; pooled sera of 3): 4.3 | Ratio of level of IL-31 in sera (treated vs. untreated) ([4]; pooled sera of 3): 3.5 | Ratio of level of Lymphotoxin-α in sera (treated vs. untreated) ([4]; pooled sera of 3): 12.5 | Ratio of level of TNFα in sera (treated vs. untreated) ([4]; pooled sera of 3): 45 | Ratio of level of sHVEM in sera (treated vs. untreated) ([4]; pooled sera of 3): 2

— patent US11376307B2, “Compositions and methods of treating cancer with glycomimetic peptides” (SUSAVION BIOSCIENCES, INC., priority 2018, dated 2022)
